Measurements taken from patent publication USRE38132E1, “Phenylpyrrolidines, phenylimidazolidines,3-phenyl-1,3-oxizolidines and 3-phenyl-1,3-thiazolidines and their use in the treatment of inflammatory disease” (Boehringer Ingelheim Pharmaceuticals, Inc., priority 1997, dated 2003).
Read-outs that look alike come from different tables or passages of the source.

Experiments:
[1] = tested on: cell bound form of LFA-1 (CD18, CD11a) with ICAM-1, SKW3 cells; assay: Inhibition of SKW3 cell binding to ICAM-1 (PMA-stimulated); type: cell-based, human; settings: read-out: Assay to Detect SKW3 Cells Binding to ICAM IC50
Text: (§1) Assay to Determine Inhibition of SKW3 cell binding to ICAM-1 vs. Binding to Fibronectin
(§2) This assay is used to test the selective ability of a test compound to antagonize the interaction of a cell bound form of LFA-1 with ICAM-1. The assay uses a human T cell line, SKW3 cells which express CD18, CD11a and other integrins not related to CD18, CD11a and which can be “activated” by phorbol esters. Phorbol esters enhance the affinity of CD18, CD11a for ICAM-1.
(§3) This same lymphocyte line, SKW3, also adheres to fibronectin in the presence of phorbol esters. This adhesion is mediated by membrane proteins independent of the LFA-1/ICAM-1 interaction. The SKW3 cells express another integrin, VLA4, which is the receptor for fibronectin. Therefore, as a preliminary indication of the selectivity of a test compounds to interfere with Leukointegrin/CAM interactions but not other integrin-ligand binding events, a compound can be tested for its ability to antagonize cell bound fibronectin receptor in its interaction with purified fibronectin. Compounds that inhibit this fibronectin adhesion are not specific antagonists of the CD18, CD11a/ICAM-1 binding.
(§4) Description of Assay Protocol:
(§5) Ninety-six well plates are coated with either sICAM-1(40 μg/mL) or fibronectin (100 μg/mL) in Diluting buffer for 1 h at room temperature. Added to the wells are 100 μL of the appropriately diluted test compound or 100 μL of RPMI with 15% fetal bovine serum as a control. SKW3 cells, which express CD18, CD11a and VLA4 (Dustin, M.; et al., J. Exp. Med. 1987, 165, 672-692) are washed and suspended to a concentration of 10^6 cells/mL in RPMI with 15% fetal bovine serum. Immediately before adding the cells to the wells, cells are stimulated with the phorbol ester 12-myristate 13-acetate (PMA) for a final concentration of […]. 100 μL of cells are then added to the wells resulting in a final concentration of […]. The plates are incubated for 2 h at 37° C. Unbound or loosely bound cells are gently washed away with RPMI.
(§6) Data are reported as the concentration or concentration range (in μM) at which 50% of binding is inhibited.

[2] = tested on: cell bound fibronectin receptor (VLA4) with fibronectin, SKW3 cells; assay: Inhibition of SKW3 cell binding to fibronectin (selectivity counter-assay); type: cell-based, human; settings: for IC50: read-out: Assay to Detect SKW3 Cells Binding to FIBRONECTIN IC50
Text: as §1, §2, §3, §4, §5, §6

[3] = molecular target: T1, interaction of ICAM-1 with the Leukointegrin CD18/CD11a (LFA-1) (Homo sapiens, UniProt P05107+P20701); assay: Assay to determine inhibition of LFA-1 binding to ICAM-1 (immunopurified LFA-1 on plate-bound sICAM-1, ELISA readout)
T1 construct: endogenous in cells; sICAM-1: made in house, secreted from transfected CHO DUX cells
T1 sequence (P20701 26-1170): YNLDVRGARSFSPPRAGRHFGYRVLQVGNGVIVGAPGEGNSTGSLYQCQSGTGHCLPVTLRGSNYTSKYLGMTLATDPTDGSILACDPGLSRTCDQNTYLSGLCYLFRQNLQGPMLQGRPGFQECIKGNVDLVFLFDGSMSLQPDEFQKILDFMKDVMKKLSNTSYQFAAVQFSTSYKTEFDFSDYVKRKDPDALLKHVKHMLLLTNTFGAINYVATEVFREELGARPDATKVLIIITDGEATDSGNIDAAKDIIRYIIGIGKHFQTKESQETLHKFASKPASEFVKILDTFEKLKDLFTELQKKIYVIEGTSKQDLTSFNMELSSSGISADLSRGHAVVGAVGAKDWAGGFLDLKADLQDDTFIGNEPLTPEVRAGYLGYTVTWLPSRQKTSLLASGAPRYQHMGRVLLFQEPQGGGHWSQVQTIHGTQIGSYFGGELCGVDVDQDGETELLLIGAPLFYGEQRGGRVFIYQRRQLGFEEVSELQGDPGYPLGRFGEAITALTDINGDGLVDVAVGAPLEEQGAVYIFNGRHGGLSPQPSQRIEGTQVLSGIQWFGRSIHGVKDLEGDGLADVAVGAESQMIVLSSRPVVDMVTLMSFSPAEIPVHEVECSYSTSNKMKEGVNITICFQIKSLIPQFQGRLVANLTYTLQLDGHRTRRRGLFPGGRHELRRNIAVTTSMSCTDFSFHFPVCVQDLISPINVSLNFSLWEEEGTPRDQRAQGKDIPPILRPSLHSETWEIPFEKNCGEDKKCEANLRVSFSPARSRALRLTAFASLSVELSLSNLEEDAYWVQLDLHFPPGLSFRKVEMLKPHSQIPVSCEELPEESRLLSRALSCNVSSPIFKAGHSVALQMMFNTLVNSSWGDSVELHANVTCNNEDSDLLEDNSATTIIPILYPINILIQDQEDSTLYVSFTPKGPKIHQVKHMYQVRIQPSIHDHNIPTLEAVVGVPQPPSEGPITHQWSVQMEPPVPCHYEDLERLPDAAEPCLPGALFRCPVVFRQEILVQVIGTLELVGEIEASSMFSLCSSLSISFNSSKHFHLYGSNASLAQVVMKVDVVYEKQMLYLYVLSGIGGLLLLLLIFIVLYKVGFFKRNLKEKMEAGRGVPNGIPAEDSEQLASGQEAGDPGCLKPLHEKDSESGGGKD
T1 sequence (P05107 23-769): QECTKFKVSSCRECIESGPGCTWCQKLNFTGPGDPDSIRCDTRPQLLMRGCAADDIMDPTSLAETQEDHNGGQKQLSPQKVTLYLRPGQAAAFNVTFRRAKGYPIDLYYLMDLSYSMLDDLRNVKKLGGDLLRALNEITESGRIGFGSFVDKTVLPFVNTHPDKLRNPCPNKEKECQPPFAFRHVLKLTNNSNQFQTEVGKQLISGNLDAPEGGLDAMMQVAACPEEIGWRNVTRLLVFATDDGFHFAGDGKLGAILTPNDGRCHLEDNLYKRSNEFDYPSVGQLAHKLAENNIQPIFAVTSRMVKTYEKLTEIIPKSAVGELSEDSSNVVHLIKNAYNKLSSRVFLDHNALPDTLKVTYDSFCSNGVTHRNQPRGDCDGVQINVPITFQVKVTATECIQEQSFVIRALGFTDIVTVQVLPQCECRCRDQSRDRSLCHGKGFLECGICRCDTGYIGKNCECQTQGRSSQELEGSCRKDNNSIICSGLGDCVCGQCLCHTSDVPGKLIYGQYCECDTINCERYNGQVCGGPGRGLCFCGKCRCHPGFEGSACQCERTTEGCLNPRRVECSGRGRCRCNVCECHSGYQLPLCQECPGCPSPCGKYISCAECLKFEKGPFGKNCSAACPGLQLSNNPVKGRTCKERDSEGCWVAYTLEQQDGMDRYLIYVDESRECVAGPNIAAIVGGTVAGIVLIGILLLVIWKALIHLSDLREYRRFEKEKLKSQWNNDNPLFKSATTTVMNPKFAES

[4] = No inh = no inhibition observed up to highest dose, exact quantification not always possible due to intrinsic toxicity
[5] = Homo sapiens, SKW3, values marked c: no inhibition observed up to highest dose
[6] = values marked c: no inhibition observed up to highest dose
[7] = values marked e approximated from incomplete dose-response curve

## C[C@H](c1ccccc1)[C@]1(C)C(=O)N(c2cc(Cl)cc(Cl)c2)C(=O)N1C [Example 269]
[1]; Homo sapiens, SKW3
  IC50: 25 µM
[2]; [4]
  Assay to Detect SKW3 Cells Binding to FIBRONECTIN IC50: No inh^c
[3]
  Kd: 290 nM
SKW3 cells
  Cellular Toxicity Assay MTT LD50: 250 to 500 µM

## C[C@@H](c1ccccc1)[C@H]1NC(=O)N(c2cc(Cl)cc(Cl)c2)C1=O [Example 22]
[1]; [5]
  IC50: < 16 µM
[2]; [6]
  Assay to Detect SKW3 Cells Binding to FIBRONECTIN IC50: No inh^c
[3]; [7]
  Kd: 400 nM
SKW3 cells
  Cellular Toxicity Assay MTT LD50: 125 to 250 µM

## CN1C(=O)N(c2cc(Cl)cc(Cl)c2)C(=O)[C@]1(C)Cc1ccc(Br)cc1 [Example 272]
[1]; Homo sapiens, SKW3
  IC50: 50 to 100 µM
[2]; [4]
  Assay to Detect SKW3 Cells Binding to FIBRONECTIN IC50: No inh^c
SKW3 cells
  Cellular Toxicity Assay MTT LD50: 250 to 500 µM

## O=C1CC(Cc2ccccc2)C(=O)N1c1cc(Cl)cc(Cl)c1 (centres unmarked) [Example 76]
[1]; [5]
  IC50: 150 to 300 µM
[2]; [5]
  IC50: > 300 µM
[3]; [7]
  Kd: 2340 nM
SKW3 cells
  Cellular Toxicity Assay MTT LD50: >500 µM

## CN1C(=O)N(c2cc(Cl)cc(Cl)c2)C(=O)C1(C)Cc1ccc(Br)cc1 (centres unmarked) [Example 138]
[1]; [5]
  IC50: 6 µM
[2]; [6]
  Assay to Detect SKW3 Cells Binding to FIBRONECTIN IC50: No inh^c
SKW3 cells
  Cellular Toxicity Assay MTT LD50: 250 to 500 µM

## C[C@H](c1ccccc1)[C@H]1NC(=O)N(c2cc(Cl)cc(Cl)c2)C1=O [Example 21]
[1]; [5]
  IC50: < 16 µM
[2]; [5]
  IC50: 125 to 250 µM
[3]; [7]
  Kd: 690 nM
SKW3 cells
  Cellular Toxicity Assay MTT LD50: 125 to 250 µM

## CC1(Cc2c[nH]c3ccccc23)NC(=O)N(c2cc(Cl)cc(Cl)c2)C1=O (centres unmarked) [Example 28]
[2]; [6]
  Assay to Detect SKW3 Cells Binding to FIBRONECTIN IC50: No inh^c
[3]; [7]
  Kd: 2590 nM
SKW3 cells
  Cellular Toxicity Assay MTT LD50: 100 to 200 µM

## C[C@@H](c1ccccc1)[C@@H]1C(=O)N(c2cc(Cl)cc(Cl)c2)C(=O)N1C [Example 86]
[1]; [5]
  IC50: 19 to 38 µM
[2]; [5]
  IC50: > 75 µM
[3]; [7]
  Kd: 530 nM
SKW3 cells
  Cellular Toxicity Assay MTT LD50: >500 µM

## CN1C(=O)N(c2cc(C(F)(F)F)cc(C(F)(F)F)c2)C(=O)C1(C)Cc1ccccc1 (centres unmarked) [Example 88]
[1]; [6]
  IC50: 19 to 38 µM
[2]; [6]
  IC50: > 75 µM
[3]; [7]
  Kd: 410 nM
SKW3 cells
  Cellular Toxicity Assay MTT LD50: 250 to 500 µM

## CCCN1C(=O)N(c2cc(Cl)cc(Cl)c2)C(=O)C1(C)Cc1ccccc1 (centres unmarked) [Example 90]
[1]; [5]
  IC50: 50 to 100 µM
[2]; [6]
  Assay to Detect SKW3 Cells Binding to FIBRONECTIN IC50: No inh^c
[3]; [7]
  Kd: 730 nM
SKW3 cells
  Cellular Toxicity Assay MTT LD50: >500 µM

## CC(=O)N1C(=O)N(c2cc(Cl)cc(Cl)c2)C(=O)C1(C)Cc1ccccc1 (centres unmarked) [Example 96]
[1]; [5]
  IC50: 50 µM
[2]; [6]
  Assay to Detect SKW3 Cells Binding to FIBRONECTIN IC50: No inh^c
[3]; [7]
  Kd: 460 nM
SKW3 cells
  Cellular Toxicity Assay MTT LD50: 100 to 200 µM

## O=C1NC(Cc2ccc([N+](=O)[O-])cc2)C(=O)N1c1cc(Cl)cc(Cl)c1 (centres unmarked) [Example 7]
[1]; [5]
  IC50: 50 to 100 µM
[2]; [6]
  Assay to Detect SKW3 Cells Binding to FIBRONECTIN IC50: No inh^c
[3]; [7]
  Kd: 1330 nM
SKW3 cells
  Cellular Toxicity Assay MTT LD50: 250 to 500 µM

## CN1C(=O)N(c2cc(Cl)cc(Cl)c2)C(=O)[C@@]1(C)Cc1ccc(-c2ccncc2)cc1 [Example 189]
[1]; [5]
  IC50: 0.6 to 1.2 µM
[2]; [6]
  Assay to Detect SKW3 Cells Binding to FIBRONECTIN IC50: No inh^c
[3]; [7]
  Kd: 190 nM
SKW3 cells
  Cellular Toxicity Assay MTT LD50: 63 µM

## O=C1N[C@@H](Cc2ccccc2)C(=O)N1c1cc(Cl)cc(Cl)c1 [Example 14]
[1]; [5]
  IC50: 63 to 125 µM
[2]; [5]
  IC50: > 125 µM
[3]; [7]
  Kd: 12700 nM
SKW3 cells
  Cellular Toxicity Assay MTT LD50: 125 to 250 µM

## CCN1C(=O)N(c2cc(Cl)cc(Cl)c2)C(=O)C1(C)Cc1ccccc1 (centres unmarked) [Example 89]
[1]; [5]
  IC50: 50 µM
[2]; [6]
  Assay to Detect SKW3 Cells Binding to FIBRONECTIN IC50: No inh^c
[3]; [7]
  Kd: 290 nM
SKW3 cells
  Cellular Toxicity Assay MTT LD50: 500 µM

## C[C@H](c1ccccc1)[C@@H]1C(=O)N(c2cc(Cl)cc(Cl)c2)C(=O)N1C [Example 85]
[1]; [5]
  IC50: 19 to 38 µM
[2]; [5]
  IC50: > 75 µM
[3]; [7]
  Kd: 720 nM
SKW3 cells
  Cellular Toxicity Assay MTT LD50: >500 µM

## O=C1NC(Cc2ccccc2)C(=O)N1c1cc(Cl)cc(Cl)c1 (centres unmarked) [Example 20]
[1]; [5]
  IC50: 16 µM
[2]; [5]
  IC50: 63 to 125 µM
[3]; [7]
  Kd: 1760 nM
SKW3 cells
  Cellular Toxicity Assay MTT LD50: 125 to 250 µM

## C[C@@]1(Cc2ccccc2)NC(=O)N(c2cc(Cl)cc(Cl)c2)C1=O [Example 2]
[1]; [5]
  IC50: > 100 µM
[2]; [5]
  IC50: > 100 µM
[3]; [7]
  Kd: 14400 nM
SKW3 cells
  Cellular Toxicity Assay MTT LD50: 125 to 250 µM

## C[C@@]1(Cc2ccc(Br)cc2)C(=O)N(c2cc(Cl)cc(Cl)c2)C(=O)N1CCCCCS(=O)(=O)O [Example 251]
[1]; Homo sapiens, SKW3
  IC50: < 0.5 µM
[2]; [4]
  Assay to Detect SKW3 Cells Binding to FIBRONECTIN IC50: No inh^c
[3]
  Kd: 60 nM
SKW3 cells
  Cellular Toxicity Assay MTT LD50: 100 to 200 µM

## C[C@@]1(Cc2ccc(Br)cc2)C(=O)N(c2cc(Cl)cc(Cl)c2)C(=O)N1CCCCN [Example 241]
[1]; Homo sapiens, SKW3
  IC50: 0.8 to 1.6 µM
[2]; Homo sapiens, SKW3, No inh = no inhibition observed up to highest dose, exact quantification not always possible due to intrinsic toxicity
  IC50: 13 µM
[3]
  Kd: 100 nM
SKW3 cells
  Cellular Toxicity Assay MTT LD50: 9 to 18 µM

## CN1C(=O)N(c2cc(Cl)cc(Cl)c2)C(=O)C1Cc1ccccc1 (centres unmarked) [Example 82]
[1]; [5]
  IC50: 63 to 125 µM
[2]; [5]
  IC50: > 250 µM
[3]; [7]
  Kd: 2100 nM
SKW3 cells
  Cellular Toxicity Assay MTT LD50: 250 to 500 µM

## O=C1NC(Cc2ccc([N+](=O)[O-])cc2)C(=O)N1c1cc(Cl)cc(Cl)c1 (centres unmarked) [Example 24]
[1]; [6]
  IC50: > 60 µM
[2]; [6]
  Assay to Detect SKW3 Cells Binding to FIBRONECTIN IC50: No inh^c
[3]; [7]
  Kd: 850 nM
SKW3 cells
  Cellular Toxicity Assay MTT LD50: >400 µM

## C[C@@]1(Cc2ccc(Br)cc2)C(=O)N(c2cc(Cl)cc(Cl)c2)C(=O)N1C(=O)CO [Example 231]
[1]; Homo sapiens, SKW3
  IC50: 2 to 5 µM
[2]; [4]
  Assay to Detect SKW3 Cells Binding to FIBRONECTIN IC50: No inh^c
[3]
  Kd: 270 nM
SKW3 cells
  Cellular Toxicity Assay MTT LD50: 40 to 80 µM

## C[C@@]1(Cc2ccc([N+](=O)[O-])cc2)C(=O)N(c2cc(Cl)cc(Cl)c2)C(=O)N1S(C)(=O)=O [Example 136]
[1]; [5]
  IC50: 0.6 to 1 µM
[2]; [6]
  Assay to Detect SKW3 Cells Binding to FIBRONECTIN IC50: No inh^c
[3]; [7]
  Kd: 190 nM
SKW3 cells
  Cellular Toxicity Assay MTT LD50: 150 to 300 µM

## O=C1NC(Cc2ccc3ccccc3c2)C(=O)N1c1cc(Cl)cc(Cl)c1 (centres unmarked) [Example 17]
[1]; [5]
  IC50: > 63 µM
[2]; [6]
  Assay to Detect SKW3 Cells Binding to FIBRONECTIN IC50: No inh^c
[3]; [7]
  Kd: 3010 nM
SKW3 cells
  Cellular Toxicity Assay MTT LD50: 125 µM

## CC1(Cc2ccccc2)NC(=O)N(c2cc(C(F)(F)F)cc(C(F)(F)F)c2)C1=O (centres unmarked) [Example 16]
[1]; [5]
  IC50: 19 to 38 µM
[2]; [5]
  IC50: > 75 µM
[3]; [7]
  Kd: 850 nM
SKW3 cells
  Cellular Toxicity Assay MTT LD50: 63 to 125 µM
